# Biological target: ASK1 (Apoptosis Signal-Regulating Kinase 1) (Homo sapiens (Human), UniProt Q99683)
# Assay: ASK1 (Apoptosis Signal-Regulating Kinase 1) TR-FRET Kinase Assay (Biochemical IC50)
# Settings: TR-FRET, biotin-MBP substrate, 20 min pre-incubation, ATP added as 300 μM solution
# Chain of ASK1 (Apoptosis Signal-Regulating Kinase 1) (Q99683 649-946): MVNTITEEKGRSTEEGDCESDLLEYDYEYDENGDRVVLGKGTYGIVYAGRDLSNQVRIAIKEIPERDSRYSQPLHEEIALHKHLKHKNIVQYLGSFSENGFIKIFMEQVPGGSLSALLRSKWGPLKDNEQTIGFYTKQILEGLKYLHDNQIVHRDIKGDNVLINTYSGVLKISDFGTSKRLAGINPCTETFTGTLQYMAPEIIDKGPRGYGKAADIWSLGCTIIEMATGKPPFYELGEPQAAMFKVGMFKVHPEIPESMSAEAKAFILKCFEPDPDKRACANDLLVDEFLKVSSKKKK
row,SMILES,IC50
1,"CC(C)c1cn(-c2ccnc(C(=O)Nc3cccc(-c4nncn4C4CC4)n3)c2)cn1 [Example 167, N-(6-(4-cyclopropyl-4H-1,2,4-triazol-3-yl)pyridin-2-yl)-4-(4-isopropyl-1H-imidazol-1-yl)picolinamide]",7 nM
2,"O=C(Nc1cccc(-c2nncn2C2CC2)c1)c1cc(-c2ccc(N3CCCC3)nc2)ccn1 [Example 47, N-(3-(4-cyclopropyl-4H-1,2,4-triazol-3-yl)phenyl)-6-(pyrrolidin-1-yl)-3,4′-bipyridine-2′-carboxamide]",32 nM
3,"O=C(Nc1cccc(-c2nncn2C2CC2)n1)c1cc(-c2cccnc2)ccn1 [Example 54, N-(6-(4-cyclopropyl-4H-1,2,4-triazol-3-yl)pyridin-2-yl)-3,4′-bipyridine-2′-carboxamide]",5 nM
4,"Cn1cnnc1-c1cccc(NC(=O)c2cc(N3CCNC(=O)C3)ccn2)c1 [Example 32, N-(3-(4-methyl-4H-1,2,4-triazol-3-yl)phenyl)-4-(3-oxopiperazin-1-yl)picolinamide]",569 nM
5,"Cn1c(-c2ccnc(C(=O)Nc3cccc(-c4nncn4C4CC4)c3)c2)cnc1-c1ccccc1 [Example 116, N-(3-(4-cyclopropyl-4H-1,2,4-triazol-3-yl)phenyl)-4-(1-methyl-2-phenyl-1H-imidazol-5-yl)picolinamide]",23 nM
6,"O=C(Nc1cccc(-c2cncn2C2CC2)c1)c1cc(-c2cccnc2)ccn1 [Example 72, N-(3-(1-cyclopropyl-1H-imidazol-5-yl)phenyl)-3,4′-bipyridine-2′-carboxamide]",36 nM
7,"O=C(Nc1cccc(-c2nncn2C2CC2)c1)c1cc(-c2cnc3cc[nH]c3c2)ccn1 [Example 128, N-(3-(4-cyclopropyl-4H-1,2,4-triazol-3-yl)phenyl)-4-(1H-pyrrolo[3,2-b]pyridin-6-yl)picolinamide]",6 nM
8,"CCS(=O)(=O)c1ccc(-c2ccnc(C(=O)Nc3cccc(-c4nncn4C4CC4)c3)c2)cc1 [Example 117, N-(3-(4-cyclopropyl-4H-1,2,4-triazol-3-yl)phenyl)-4-(4-(ethylsulfonyl)phenyl)picolinamide]",12 nM
9,"O=C(Nc1cccc(-c2nncn2C2CC2)c1)c1cc(-c2ccc(C3CC3)cc2)ccn1 [Example 129, N-(3-(4-cyclopropyl-4H-1,2,4-triazol-3-yl)phenyl)-4-(4-cyclopropylphenyl)picolinamide]",22 nM
10,"Cc1ncccc1-c1ccnc(C(=O)Nc2cccc(-c3nncn3C3CC3)c2)c1 [Example 74, N-(3-(4-cyclopropyl-4H-1,2,4-triazol-3-yl)phenyl)-2-methyl-3,4′-bipyridine-2′-carboxamide]",79 nM
11,"CN1CCc2c(ncn2-c2ccnc(C(=O)Nc3cccc(-c4nncn4C4CC4)c3)c2)C1C(F)(F)F (stereo not shown) [Example 257, N-(3-(4-cyclopropyl-4H-1,2,4-triazol-3-yl)phenyl)-4-(5-methyl-4-(trifluoromethyl)-4,5,6,7-tetrahydro-1H-imidazo[4,5-c]pyridin-1-yl)picolinamide]",6 nM
12,"Cn1cnnc1-c1cccc(NC(=O)c2cc(-c3cnc4ccccn34)ccn2)c1 [Example 13, 4-(imidazo[1,2-a]pyridin-3-yl)-N-(3-(4-methyl-4H-1,2,4-triazol-3-yl)phenyl)picolinamide]",44 nM
13,"O=C(Nc1cccc(-c2nncn2C2CC2)c1)c1cc(-c2ccc(F)nc2)ccn1 [Example 93, N-(3-(4-cyclopropyl-4H-1,2,4-triazol-3-yl)phenyl)-6-fluoro-3,4′-bipyridine-2′-carboxamide]",43 nM
14,"O=C(Nc1cccc(-c2nncn2C2CC2)n1)c1cc(N2CCCC(O)C2)ccn1 (stereo not shown) [Example 175, N-(6-(4-cyclopropyl-4H-1,2,4-triazol-3-yl)pyridin-2-yl)-4-(3-hydroxypiperidin-1-yl)picolinamide]",10 nM
15,"Cn1cnc2cc(-c3ccnc(C(=O)Nc4cccc(-c5nncn5C5CC5)c4)c3)cnc21 [Example 143, N-(3-(4-cyclopropyl-4H-1,2,4-triazol-3-yl)phenyl)-4-(3-methyl-3H-imidazo[4,5-b]pyridin-6-yl)picolinamide]",15 nM
16,"O=C(Nc1cccc(-c2nncn2C2CC2)n1)c1cc(-c2ccc(C3CC3)nc2)c2ccccc2n1 [Example 225, N-(6-(4-cyclopropyl-4H-1,2,4-triazol-3-yl)pyridin-2-yl)-4-(6-cyclopropylpyridin-3-yl)quinoline-2-carboxamide]",103 nM
17,"COCCNc1ccc(-c2ccnc(C(=O)Nc3cccc(-c4nncn4C4CC4)c3)c2)cn1 [Example 136, N-(3-(4-cyclopropyl-4H-1,2,4-triazol-3-yl)phenyl)-6-(2-methoxyethylamino)-3,4′-bipyridine-2′-carboxamide]",7 nM
18,"C[C@H](n1cnnc1-c1cccc(NC(=O)c2cc(-c3cccnc3)ccn2)c1)C(F)(F)F [Example 63, (S)-N-(3-(4-(1,1,1-trifluoropropan-2-yl)-4H-1,2,4-triazol-3-yl)phenyl)-3,4′-bipyridine-2′-carboxamide]",21 nM
19,"O=C(Nc1cccc(-c2nncn2C2CC2)c1)c1cc(-c2ccc(C(F)(F)F)nc2)ccn1 [Example 52, N-(3-(4-cyclopropyl-4H-1,2,4-triazol-3-yl)phenyl)-6-(trifluoromethyl)-3,4′-bipyridine-2′-carboxamide]",12 nM

row,SMILES,IC50
1,"O=C(Nc1cccc(-c2nncn2C2CC2)c1)c1cc(-c2ccc(S(=O)(=O)NC3CC3)cc2)ccn1 [Example 96, N-(3-(4-cyclopropyl-4H-1,2,4-triazol-3-yl)phenyl)-4-(4-(N-cyclopropylsulfamoyl)phenyl)picolinamide]",13 nM
2,"Cn1cnnc1-c1cccc(NC(=O)c2cc(N3CCOCC3)ccn2)c1 [Example 30, N-(3-(4-methyl-4H-1,2,4-triazol-3-yl)phenyl)-4-morpholinopicolinamide]",335 nM
3,"O=C(Nc1cccc(-c2nncn2C2CC2)c1)c1cc(-c2cnc(C3CC3)c(Cl)c2)ccn1 [Example 135, 5-chloro-6-cyclopropyl-N-(3-(4-cyclopropyl-4H-1,2,4-triazol-3-yl)phenyl)-3,4′-bipyridine-2′-carboxamide]",131 nM
4,"O=C(Nc1cccc(-c2cncn2C2CC2)n1)c1cc(-c2cnc3ccccc3c2)ccn1 [Example 126, N-(6-(1-cyclopropyl-1H-imidazol-5-yl)pyridin-2-yl)-4-(quinolin-3-yl)picolinamide]",1040 nM
5,"CCc1cc(-c2ccnc(C(=O)Nc3cccc(-c4nncn4C4CC4)c3)c2)cnc1CC [Example 141, N-(3-(4-cyclopropyl-4H-1,2,4-triazol-3-yl)phenyl)-5,6-diethyl-3,4′-bipyridine-2′-carboxamide]",13 nM
6,"O=C(Nc1cccc(-c2nncn2C2CCCC2)c1)c1cc(-c2cccnc2)ccn1 [Example 40, N-(3-(4-cyclopentyl-4H-1,2,4-triazol-3-yl)phenyl)-3,4′-bipyridine-2′-carboxamide]",75 nM
7,"Cc1ncn(-c2ccnc(C(=O)Nc3cccc(-c4nncn4C4CC4)c3)c2)c1C [Example 43, N-(3-(4-cyclopropyl-4H-1,2,4-triazol-3-yl)phenyl)-4-(4,5-dimethyl-1H-imidazol-1-yl)picolinamide]",8 nM
8,"Cc1cc(-c2cccnc2)cc(C(=O)Nc2cccc(-c3nncn3C)c2)n1 [Example 46, 6′-methyl-N-(3-(4-methyl-4H-1,2,4-triazol-3-yl)phenyl)-3,4′-bipyridine-2′-carboxamide]",212 nM
9,"O=C(Nc1cccc(-c2nncn2C2CC2)n1)c1cc(-c2ccc(C3CC3)nc2)c(Cl)cc1F [Example 265, 4-chloro-N-(6-(4-cyclopropyl-4H-1,2,4-triazol-3-yl)pyridin-2-yl)-5-(6-cyclopropylpyridin-3-yl)-2-fluorobenzamide]",27 nM
10,"Nc1ncccc1-c1ccnc(C(=O)Nc2cccc(-c3nncn3C3CC3)c2)c1 [Example 66, 2-amino-N-(3-(4-cyclopropyl-4H-1,2,4-triazol-3-yl)phenyl)-3,4′-bipyridine-2′-carboxamide]",86 nM
11,"Cn1cc(-c2ccnc(C(=O)Nc3cccc(-c4nncn4C4CC4)c3)c2)cn1 [Example 68, N-(3-(4-cyclopropyl-4H-1,2,4-triazol-3-yl)phenyl)-4-(1-methyl-1H-pyrazol-4-yl)picolinamide]",39 nM
12,"O=C(Nc1cccc(-c2nncn2C2CC2)n1)c1cc(-n2cnc(C3CC3)c2)ccn1 [Example 170, 4-(4-cyclopropyl-1H-imidazol-1-yl)-N-(6-(4-cyclopropyl-4H-1,2,4-triazol-3-yl)pyridin-2-yl)picolinamide]",7 nM
13,"O=C(Nc1cccc(-c2nncn2C2CC2)c1)c1cc(-c2cncc3ccccc23)ccn1 [Example 89, N-(3-(4-cyclopropyl-4H-1,2,4-triazol-3-yl)phenyl)-4-(isoquinolin-4-yl)picolinamide]",26 nM
14,"COC[C@H](C)n1cnnc1-c1cccc(NC(=O)c2cc(-c3ccc(C4CC4)nc3)ccn2)c1 [Example 232, (S)-6-cyclopropyl-N-(3-(4-(1-methoxypropan-2-yl)-4H-1,2,4-triazol-3-yl)phenyl)-3,4′-bipyridine-2′-carboxamide]",17 nM
15,"CC(C)S(=O)(=O)c1ccc(-c2ccnc(C(=O)Nc3cccc(-c4nncn4C4CC4)c3)c2)cc1 [Example 118, N-(3-(4-cyclopropyl-4H-1,2,4-triazol-3-yl)phenyl)-4-(4-(isopropylsulfonyl)phenyl)picolinamide]",9 nM
16,"CC(C)n1cnnc1-c1cccc(NC(=O)c2cc(-c3ccc(C4CC4)nc3)ccn2)n1 [Example 176, 6-cyclopropyl-N-(6-(4-isopropyl-4H-1,2,4-triazol-3-yl)pyridin-2-yl)-3,4′-bipyridine-2′-carboxamide]",13 nM
17,"O=C(Nc1cccc(-c2nncn2C2CC2)n1)c1cccc(-n2cnc3c2CCCC3)c1 [Example 212, N-(6-(4-cyclopropyl-4H-1,2,4-triazol-3-yl)pyridin-2-yl)-3-(4,5,6,7-tetrahydro-1H-benzo[d]imidazol-1-yl)benzamide]",9 nM
18,"Cc1ccc(-n2cnc(C3CC3)c2)cc1C(=O)Nc1cccc(-c2nncn2C2CC2)n1 [Example 197, 5-(4-cyclopropyl-1H-imidazol-1-yl)-N-(6-(4-cyclopropyl-4H-1,2,4-triazol-3-yl)pyridin-2-yl)-2-methylbenzamide]",47 nM
